Laboratory results taken from patent US5744462A, “Steroids useful as anti-cancer and anti-obesity agents” (Research Corporation Technologies, Inc., priority 1995, dated 1998).

Legend:
[1] = test system: mouse epidermis; details: cited from earlier work
[2] = in vivo; cited from earlier work
[3] = test system: mouse epidermal DNA (TPA stimulated 3H-thymidine incorporation); test: TPA stimulation of 3H-thymidine incorporation in epidermis, topical steroid; assay type: in vivo, mouse (A/J); details: for SPECIFIC ACTIVITY, TPA stimulated 3H-thymidine incorporation: no steroid 66, TPA alone 174
Protocol: (§1) Tumor promoters, such as TPA, stimulate hyperplasia and DNA synthesis when applied to the skin, and it is believed that this stimulation is an important step in the enhancement of tumorigenesis.
Incorporation of ^3 H-thymidine into A/J mouse epidermal DNA was determined as described in Pashko, L. L., Schwartz, A. G., Abou-Gharbia, M. and Swern, D. (1981), Inhibition of DNA synthesis in mouse epidermis and breast epithelium by dehydroepiandrosterone and related steroids, Carcinogenesis, 2, 717-721. Values are mean±SD for 3 separately treated mice in each group 20 hours after TPA application. DHEA or testosterone was added topically in 0.2 ml acetone one hour before TPA addition.

[4] = test system: human lymphocytes (Epstein-Barr virus-induced transformation); details: cited from earlier work
[5] = test system: mammalian glucose-6-phosphate dehydrogenase (G6PDH); details: cited from earlier work
[6] = DMBA-initiated and TPA-promoted; cited from earlier work
[7] = daily approximately 400 mg/kg, long-term; cited from earlier work
[8] = test system: mouse epidermis (TPA stimulated 3H-thymidine incorporation); test: TPA stimulation of 3H-thymidine incorporation in mouse epidermis, oral steroid; assay type: in vivo, mouse (male ICR)
Protocol: as §1
Male ICR mice were orally intubated with steroid suspended in sesame oil (0.5 ml/mouse) at the indicated dose. Mice not receiving steroid were given sesame oil alone. One hour later mice received topical application of TPA and 20 hours later the rate of ^3 H-thymidine incorporation into the epidermis was determined as described in Pashko, L. L., Schwartz, A. G., Abou-Gharbia, M., and Swern, D. (1981), Inhibition of DNA synthesis in mouse epidermis and breast epithelium by dehydroepiandrosterone and related steroids, Carcinogenesis, 2,-717-721.
Experimental conditions are the same as in Table 3.

[9] = topical, complete carcinogenesis model; cited from earlier work
[10] = test system: many different cell lines; details: 10^-5 M to 10^-4 M; cited from earlier work
[11] = mouse, in vivo; cited from earlier work
[12] = mouse, in vivo; cited from earlier work; remark: listed apart in the source

## C[C@]12CC[C@H](O)CC1=CC[C@@H]1[C@@H]2CC[C@]2(C)C(=O)CC[C@@H]12 [DHEA, Dehydroepiandrosterone]
[1]
  capacity of TPA to stimulate 3H-thymidine incorporation: antagonizes
[2]
  estrogenic effect after prolonged administration: evidence of an estrogenic effect after prolonged administration
[3]; topical 100 ug
  SPECIFIC ACTIVITY, TPA stimulated 3H-thymidine incorporation: 52 ± 5.8 cpm/ug DNA
[3]; topical 400 ug
  SPECIFIC ACTIVITY, TPA stimulated 3H-thymidine incorporation: 22 ± 6.5 cpm/ug DNA
[3]; topical, in words (Table 5)
  effect on TPA stimulation of 3H-thymidine incorporation: abolishes this stimulation
[4]
  inhibition of Epstein-Barr virus-induced transformation: inhibitors of Epstein-Barr virus-induced transformation of human lymphocytes
[5]
  inhibition of mammalian G6PDH: potent non-competitive inhibitor
[6]
  skin papilloma formation: inhibit
[7]
  development of breast, lung, and colon tumors: inhibit the development of breast, lung, and colon tumors
[8]; Table 9, oral 400 mg/kg, no steroid 55.1, TPA alone 118
  SPECIFIC ACTIVITY, TPA stimulated 3H-thymidine incorporation: 50.9 ± 3.2 cpm/ug DNA
[8]; oral, mice, doses well below 400 mg/kg, comparable to food restriction
  effect on TPA stimulation in 3H-thymidine incorporation: inactive
[8]; single administration, 400 mg/kg, mice, compared with food restriction or topical 400 ug DHEA
  effect on TPA stimulation of 3H-thymidine incorporation: does not inhibit the TPA stimulation in epidermal ^3 H-thymidine incorporation to a degree comparable
[9]
  DMBA produced papillomas and carcinomas: inhibits DMBA produced papillomas and carcinomas
[10]
  growth of cell lines in culture: slows the growth of many different cell lines in culture
[11]
  hypoglycemic effect: marked hypoglycemic effect
[12]
  anti-hypercholesterolemic effect: anti-hypercholesterolemic effect
